Measured values published in PubChem BioAssay (NCI).
“And” between values parts separate entries of the source, which are not always exact repeats. Equal values may be shown once.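 Where inhibition never reached the appropriate level, the endpoint shown equals the highest concentration tested. Otherwise, values were interpolated linearly from a five-concentration, 48-hour dose response in 96-well plates. GI50 is the concentration that inhibits growth by half. At the TGI there is no net growth.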

Assays:
Experiment in all cases: NCI anticancer screen, dose series, 48 h
UACC-257 melanoma = test system: UACC-257 melanoma
HL-60(TB) leukemia = test system: HL-60(TB) leukemia
DMS 114 small cell lung = test system: DMS 114 small cell lung
PC-3 prostate = test system: PC-3 prostate
BT-549 breast = test system: BT-549 breast
XF 498 CNS = test system: XF 498 CNS
LXFL 529 NSCLC = test system: LXFL 529 NSCLC
HT29 colon = test system: HT29 colon
KM12 colon = test system: KM12 colon
NCI-H460 lung = test system: NCI-H460 lung
LOX IMVI melanoma = test system: LOX IMVI melanoma
786-0 renal = test system: 786-0 renal
OVCAR-3 ovarian = test system: OVCAR-3 ovarian
UACC-62 melanoma = test system: UACC-62 melanoma
U251 CNS = test system: U251 CNS
DMS 273 small cell lung = test system: DMS 273 small cell lung
NCI-H522 lung = test system: NCI-H522 lung
DLD-1 colon = test system: DLD-1 colon
M19-MEL melanoma = test system: M19-MEL melanoma
RXF 393 renal = test system: RXF 393 renal
MDA-MB-435 = test system: MDA-MB-435
T-47D breast = test system: T-47D breast
ACHN renal = test system: ACHN renal
HCT-15 colon = test system: HCT-15 colon
A498 renal = test system: A498 renal
SK-MEL-2 melanoma = test system: SK-MEL-2 melanoma
HOP-18 NSCLC = test system: HOP-18 NSCLC
RPMI-8226 leukemia = test system: RPMI-8226 leukemia
SR leukemia = test system: SR leukemia
DU-145 prostate = test system: DU-145 prostate
MDA-MB-231 breast = test system: MDA-MB-231 breast
SW-620 colon = test system: SW-620 colon
NCI-H226 lung = test system: NCI-H226 lung
OVCAR-8 ovarian = test system: OVCAR-8 ovarian
NCI/ADR-RES ovarian = test system: NCI/ADR-RES ovarian
HOP-62 NSCLC = test system: HOP-62 NSCLC
SF-295 CNS = test system: SF-295 CNS
K-562 leukemia = test system: K-562 leukemia
SF-539 CNS = test system: SF-539 CNS
TK-10 renal = test system: TK-10 renal
CCRF-CEM leukemia = test system: CCRF-CEM leukemia
HS 578T breast = test system: HS 578T breast
MCF7 breast = test system: MCF7 breast
SNB-19 CNS = test system: SNB-19 CNS
M14 melanoma = test system: M14 melanoma
A549 NSCLC = test system: A549 NSCLC
HCC-2998 colon = test system: HCC-2998 colon
NCI-H23 lung = test system: NCI-H23 lung
UO-31 renal = test system: UO-31 renal
IGROV1 ovarian = test system: IGROV1 ovarian
SK-MEL-28 melanoma = test system: SK-MEL-28 melanoma
SN12C renal = test system: SN12C renal
SF-268 CNS = test system: SF-268 CNS
MDA-N = test system: MDA-N
SNB-75 CNS = test system: SNB-75 CNS
SK-MEL-5 melanoma = test system: SK-MEL-5 melanoma
SNB-78 CNS = test system: SNB-78 CNS
HOP-92 NSCLC = test system: HOP-92 NSCLC
MALME-3M melanoma = test system: MALME-3M melanoma
OVCAR-4 ovarian = test system: OVCAR-4 ovarian
MOLT-4 leukemia = test system: MOLT-4 leukemia
CAKI-1 renal = test system: CAKI-1 renal
OVCAR-5 ovarian = test system: OVCAR-5 ovarian
COLO 205 colon = test system: COLO 205 colon
HCT-116 colon = test system: HCT-116 colon
EKVX NSCLC = test system: EKVX NSCLC
KM20L2 colon = test system: KM20L2 colon

Structure (SMILES): Cc1cc(O)c2c(c1)C[C@@H](O)C1=C2C(=O)c2c(O)ccc(OC3CC(O)C(OC4CC(OC5CCC(OC6CC(O)C(OC7CC(OC8CCC(O)C(C)O8)C(O)C(C)O7)C(C)O6)C(C)O5)C(O)C(C)O4)C(C)O3)c2C1=O (some centres undefined)
- GI50 (UACC-257 melanoma): 1380 nM and 844 nM
- GI50 (HL-60(TB) leukemia): 112 nM
- TGI (HL-60(TB) leukemia): 134 nM and 291 nM
- TGI (DMS 114 small cell lung): 37.8 nM
- GI50 (PC-3 prostate): 400 nM and 849 nM
- TGI (PC-3 prostate): 560 nM and 1490 nM and 3500 nM
- TGI (BT-549 breast): 490 nM
- TGI (XF 498 CNS): 51.7 nM
- TGI (LXFL 529 NSCLC): 29.3 nM
- GI50 (HT29 colon): 847 nM
- TGI (HT29 colon): 318 nM and 2300 nM
- GI50 (KM12 colon): 1780 nM and 1110 nM
- TGI (NCI-H460 lung): 485 nM
- GI50 (LOX IMVI melanoma): 295 nM and 230 nM
- GI50 (786-0 renal): 490 nM and 280 nM
- GI50 (OVCAR-3 ovarian): 223 nM
- TGI (OVCAR-3 ovarian): 138 nM and 765 nM
- GI50 (UACC-62 melanoma): 237 nM and 315 nM
- TGI (UACC-62 melanoma): 134 nM and 658 nM and 1180 nM
- GI50 (U251 CNS): 469 nM and 306 nM
- TGI (DMS 273 small cell lung): 68.4 nM
- GI50 (NCI-H522 lung): 88.8 nM and 176 nM
- TGI (NCI-H522 lung): 53.4 nM and 217 nM and 415 nM
- TGI (DLD-1 colon): 42.6 nM
- TGI (M19-MEL melanoma): 19.7 nM
- GI50 (RXF 393 renal): 302 nM and 290 nM
- TGI (RXF 393 renal): 108 nM and 535 nM and 751 nM
- GI50 (MDA-MB-435): 198 nM and 204 nM
- TGI (MDA-MB-435): 182 nM and 344 nM and 376 nM
- GI50 (T-47D breast): 626 nM
- TGI (T-47D breast): 352 nM and 2540 nM
- GI50 (ACHN renal): 1520 nM and 726 nM
- GI50 (HCT-15 colon): 231 nM
- TGI (HCT-15 colon): 148 nM and 488 nM
- GI50 (A498 renal): 2720 nM and 2470 nM
- GI50 (SK-MEL-2 melanoma): 890 nM
- TGI (HOP-18 NSCLC): 188 nM
- GI50 (RPMI-8226 leukemia): 321 nM and 483 nM
- GI50 (SR leukemia): 33 nM and 47.5 nM
- GI50 (DU-145 prostate): 2030 nM and 1370 nM
- TGI (DU-145 prostate): 492 nM and 3450 nM and 2690 nM
- GI50 (MDA-MB-231 breast): 433 nM and 251 nM
- TGI (MDA-MB-231 breast): 259 nM and 1490 nM and 549 nM
- GI50 (SW-620 colon): 362 nM and 216 nM
- GI50 (NCI-H226 lung): 1480 nM
- TGI (NCI-H226 lung): 461 nM and 3070 nM
- GI50 (OVCAR-8 ovarian): 364 nM
- GI50 (NCI/ADR-RES ovarian): 3010 nM and 1800 nM
- GI50 (HOP-62 NSCLC): 1970 nM and 2760 nM
- GI50 (SF-295 CNS): 1500 nM and 3020 nM
- GI50 (K-562 leukemia): 144 nM
- TGI (K-562 leukemia): 267 nM and 457 nM
- GI50 (SF-539 CNS): 391 nM and 1310 nM
- GI50 (TK-10 renal): 2130 nM and 2930 nM
- GI50 (CCRF-CEM leukemia): 38.6 nM
- TGI (CCRF-CEM leukemia): 255 nM and 266 nM
- GI50 (HS 578T breast): 1590 nM
- GI50 (MCF7 breast): 394 nM and 921 nM
- TGI (MCF7 breast): 599 nM and 1690 nM and 2320 nM
- GI50 (SNB-19 CNS): 1410 nM and 1240 nM
- TGI (SNB-19 CNS): 335 nM and 2880 nM and 2670 nM
- GI50 (M14 melanoma): 822 nM and 1280 nM
- GI50 (A549 NSCLC): 2380 nM
- GI50 (HCC-2998 colon): 1760 nM and 1450 nM
- GI50 (NCI-H23 lung): 343 nM and 800 nM
- GI50 (UO-31 renal): 1390 nM and 1300 nM
- GI50 (IGROV1 ovarian): 1140 nM
- TGI (IGROV1 ovarian): 344 nM and 2470 nM
- GI50 (SK-MEL-28 melanoma): 267 nM and 1440 nM
- GI50 (SN12C renal): 307 nM and 1940 nM
- GI50 (SF-268 CNS): 295 nM and 467 nM
- GI50 (MDA-N): 207 nM and 240 nM
- TGI (MDA-N): 211 nM and 387 nM and 562 nM
- GI50 (SNB-75 CNS): 1480 nM and 1990 nM
- GI50 (SK-MEL-5 melanoma): 1330 nM and 1200 nM
- TGI (SNB-78 CNS): 64 nM
- GI50 (HOP-92 NSCLC): 300 nM
- TGI (HOP-92 NSCLC): 316 nM and 684 nM
- GI50 (MALME-3M melanoma): 1000 nM and 197 nM
- GI50 (OVCAR-4 ovarian): 326 nM
- GI50 (MOLT-4 leukemia): 54.1 nM
- TGI (MOLT-4 leukemia): 216 nM and 343 nM
- GI50 (CAKI-1 renal): 398 nM and 439 nM
- TGI (CAKI-1 renal): 274 nM and 1180 nM and 1450 nM
- GI50 (OVCAR-5 ovarian): 1880 nM and 666 nM
- GI50 (COLO 205 colon): 539 nM
- GI50 (HCT-116 colon): 380 nM and 281 nM
- GI50 (EKVX NSCLC): 1700 nM and 1370 nM
- TGI (KM20L2 colon): 191 nM
